Assay results: the CheMixHub viscosity set

Experiment: xn = mol fraction of the nth substance listed

O=C1CCCCC1 + CC(C)CC(C)(C)C
viscosity [mPa·s]
Conditions	293.15 K	298.15 K	303.15 K	308.15 K	313.15 K
101 kPa, x1 = 0.0911	0.5562	0.5245	0.497	0.4702	0.4465
101 kPa, x1 = 0.127	–	0.551	–	–	–
101 kPa, x1 = 0.1761	0.6094	0.5717	0.5392	0.5101	0.4831
101 kPa, x1 = 0.1855	–	0.575	–	–	–
101 kPa, x1 = 0.3071	–	0.643	–	–	–
101 kPa, x1 = 0.3304	0.7148	0.6685	0.6303	0.5925	0.5593
101 kPa, x1 = 0.4005	0.7809	0.729	0.6869	0.643	0.6047
101 kPa, x1 = 0.4354	–	0.741	–	–	–
101 kPa, x1 = 0.5171	–	0.836	–	–	–
101 kPa, x1 = 0.5288	0.9379	0.8709	0.8135	0.7598	0.7134
101 kPa, x1 = 0.5877	1.037	0.9596	0.8935	0.8326	0.7791
101 kPa, x1 = 0.6149	–	0.969	–	–	–
101 kPa, x1 = 0.6961	1.231	1.132	1.046	0.969	0.9139
101 kPa, x1 = 0.7054	–	1.114	–	–	–
101 kPa, x1 = 0.7937	1.479	1.353	1.248	1.152	1.07
101 kPa, x1 = 0.7982	–	1.317	–	–	–
101 kPa, x1 = 0.8836	–	1.526	–	–	–
101 kPa, x1 = 0.9232	1.947	1.771	1.628	1.49	1.368
101.33 kPa, x1 = 0.103	–	0.514	0.485	0.458	–
101.33 kPa, x1 = 0.2023	–	0.563	0.53	0.501	–
101.33 kPa, x1 = 0.3	–	0.626	0.589	0.556	–
101.33 kPa, x1 = 0.4044	–	0.717	0.667	0.623	–
101.33 kPa, x1 = 0.5041	–	0.808	0.751	0.702	–
101.33 kPa, x1 = 0.6035	–	0.932	0.865	0.805	–
101.33 kPa, x1 = 0.7029	–	1.104	1.016	0.953	–
101.33 kPa, x1 = 0.8014	–	1.309	1.199	1.106	–
101.33 kPa, x1 = 0.9008	–	1.58	1.44	1.322	–

CCCCCCO + CN1CCCC1=O
viscosity [mPa·s], 100 kPa
Conditions	x1 = 0.1042	x1 = 0.2	x1 = 0.302	x1 = 0.3995	x1 = 0.4998	x1 = 0.5996	x1 = 0.6992	x1 = 0.7985	x1 = 0.8981	x1 = 0.9469
293.15 K	1.95	2.073	2.222	2.385	2.581	2.824	3.148	3.595	4.278	4.729
298.15 K	1.786	1.894	2.02	2.157	2.321	2.521	2.791	3.158	3.711	4.048
303.15 K	1.645	1.739	1.845	1.961	2.099	2.266	2.49	2.791	3.24	3.53
308.15 K	1.522	1.603	1.693	1.791	1.907	2.046	2.233	2.481	2.844	3.083
313.15 K	1.412	1.483	1.56	1.643	1.741	1.857	2.012	2.217	2.51	2.708
318.15 K	1.315	1.377	1.442	1.513	1.595	1.692	1.822	1.991	2.226	2.387

CC(=O)CC(C)C + CCCCCCCO
viscosity [mPa·s], 100 kPa
Conditions	x1 = 0.0823	x1 = 0.1682	x1 = 0.2346	x1 = 0.3569	x1 = 0.4379	x1 = 0.5614	x1 = 0.6493	x1 = 0.7489	x1 = 0.8505	x1 = 0.9471
293.15 K	5.46	4.21	3.56	2.62	2.19	1.66	1.37	1.1	0.86	0.68
303.15 K	4.09	3.24	2.78	2.08	1.76	1.35	1.13	0.91	0.72	0.59
313.15 K	3.09	2.53	2.2	1.71	1.45	1.14	0.96	0.79	0.63	0.52
323.15 K	2.37	1.98	1.76	1.4	1.22	0.98	0.83	0.68	0.56	0.47

CCCCCCCCCCCCCC[P+](CCCCCC)(CCCCCC)CCCCCC.c1nnc[n-]1 + COCCOCCOCCOCCOC
viscosity [mPa·s], 100 kPa
Conditions	x1 = 0.418	x1 = 0.516	x1 = 0.61	x1 = 0.694	x1 = 0.751	x1 = 0.804	x1 = 0.874	x1 = 0.954
293.15 K	66	111	167	272	360	508	679	994
298.15 K	53	88	128	208	269	374	491	706
303.15 K	–	70	101	162	205	281	364	512
308.15 K	–	57	81	129	160	217	275	382
313.15 K	–	–	66	104	126	169	212	289
318.15 K	–	–	54	86	102	135	166	223
323.15 K	–	–	–	71	83	109	133	176

CCOCC + O
298.15 K, 101 kPa
Conditions	viscosity [mPa·s]
x1 = 0.00334	0.9366
x1 = 0.00369	1.053
x1 = 0.00509	0.9597
x1 = 0.00551	1.073
x1 = 0.00769	0.9959
x1 = 0.00866	1.107
x1 = 0.00871	1.01
x1 = 0.0107	1.132
x1 = 0.0113	1.138
x1 = 0.0149	1.088
x1 = 0.973	0.27
x2 = 0.0179	0.269

CC(=O)CC(C)C + Cc1ccccc1
298.15 K, 101 kPa
Conditions	viscosity [mPa·s]
x1 = 0.1094	0.545
x1 = 0.207	0.541
x1 = 0.3183	0.539
x1 = 0.4196	0.538
x1 = 0.5357	0.537
x1 = 0.6441	0.544
x1 = 0.7653	0.539
x1 = 0.8774	0.541
